Earlier results as cited in patent US6506055B1, “Method of reducing dentin sensitivity and compositions therefor” (MCG Research Institute, priority 1999, dated 2003).

Settings: 3% w/v applied to dentin; both in vitro and in vivo

Structure (SMILES): O=C([O-])C(=O)O.[K+] [monopotassium-monohydrogen oxalate]
- Hydraulic conductance of dentin: reduced
